Literature values in patent publication US10426749B2, “Safflower oil emulsion as dietary supplement and preparation thereof” (INNOVITAMIN ORGANICS, LLC, priority 2011, dated 2019).

System: post-menopausal, obese women with type 2 diabetes
Details: 8 grams daily for 16 weeks

In the case of conjugated linoleic acid [CLA], the “metabolic parameters (trunk fat mass, HDL cholesterol, fasting glucose, insulin sensitivity, C-reactive protein)” value is given as “did not significantly alter”.
